The values below come from patent US7507727B2, “Substituted quinobenzoxazine analogs and methods of using thereof” (Cylene Pharmaceuticals, Inc., priority 2003, dated 2009).

Like-named read-outs stand apart in the source and are kept apart here.

For test [1], the target named is c-Myc template DNA (c-myc quadruplex). The experiment in a line: Quadruplex binding / stop assay (Taq polymerase arrest, capillary electrophoresis).
The subject of the next test is HeLa cells. The experiment in a line: MTS cell proliferation and/or cytotoxicity assay. Type of test: cell-based, Human. The note with it: Homo sapiens, HeLa. How it is done:
Cell culture. Human cervical epithelial cells (HeLa cells) were obtained from American Type Culture Collection (Manassas, Va.). Cells were grown in Eagle's minimum essential medium (MEM, Hyclone, Utah) supplemented with 2 mM Glutamine, 0.1 mM nonessential amino acid, 1 mM Na Pyruvate, 1.5 g/L NaHCO3, 50 mg/L gentamicin, and 10% fetal bovine serum (Hyclone, USA) in a humidified atmosphere of 5% CO2 at 37° C.
MTS assays. Antiproliferative effects of the compounds were tested by the CellTiter 96 AQueous assay (Promega, WI), which is a calorimetric assay for determining the number of viable cells. (See, e.g., Wang, L., et al., Methods Cell Sci (1996) 18:249-255). In one example, cells (4,500 cells/well) were seeded on 96 well flat bottom plates (Corning, N.Y.) in 100 μl of culture medium without any anticancer drug on day 0, and the culture medium was exchanged for that //contained anticancer drugs at various concentrations on day 1. After incubation for 3 days under normal growth conditions (on day 4), the monolayers were washed once in PBS, and the medium was switched to 100 μl of PBS in each of the 96 well plate. After mixing MTS and PMS at the ratio of 20:1, 20 μl of MTS/PMS solution was added to each of the 96 well plate and incubated for 4 hours in a humidified atmosphere of 5% CO2 at 37° C. The absorbance was read at 490 nm using FLUOstar Galaxy 96 well plate reader (BMG Labtechnologies, Germany). μM concentrations (MTS data) reported in Table 1 are concentrations at which 50% of antiproliferative cell response is seen.

The mark [2] stands for this setting: read-out: Stop Data c-Myc μM, concentration at which 50% of the DNA was arrested (arrested:full-length 1:1).
Setting [3] is: 72 h, concentration at which 50% of antiproliferative cell response is seen, 3 days incubation, read-out: MTS Data Hella.
Setting [4] is: read-out: S DATA, Table 1D, stop assay data.
Setting [5] is: HeLa cells, MTS, read-out: Hela MTS.

Take `O=C(CN1CCCCC1)N[C@@H]1CCN(c2c(F)cc3c(=O)c(C(=O)NCCN4CCCC4)cn4c3c2Oc2cc3c(cc2-4)oc2ccccc23)C1` [compound 482]: the IC50 is 0.5 µM in test [1] (setting [2]) and 3400 nM with HeLa cells (setting [3]).
Taken in the same sequence, the figures for `COc1ccc(CCNc2c(F)cc3c(=O)c(C(=O)NCCC4CCCN4C)cn4c3c2Oc2cc3ccccc3cc2-4)cc1OC` (centres unmarked) [compound 310] were 1 µM and 2300 nM.
`CN1CCC(Nc2c(F)cc3c(=O)c(C(=O)NCCC4CCCN4C)cn4c3c2Oc2cc3ccccc3cc2-4)CC1` (centres unmarked) [compound 388]: the IC50 in test [1] (setting [2]) stood at 0.75 µM; with HeLa cells (setting [3]) it was 310 nM.
Consider `CN1CCCC1CCNC(=O)c1cn2c3cc4c(cc3oc3c(N5CC[C@H](N)C5)c(F)cc(c1=O)c32)c(=O)c1ccccc14` (some centres unmarked) [compound 582], for which the IC50 in test [1] (setting [2]) amounted to 0.18 µM; in the test on HeLa cells (setting [3]) it was 280 nM.
As to `NC1CCN(c2ccc3c(=O)c(C(=O)NCCCN4CCOCC4)cn4c3c2Oc2cc3ccccc3cc2-4)C1` (centres unmarked) [compound 1557], the IC50 in test [1] (setting [4]) came out at 0.75 µM; with HeLa cells (setting [5]), 1500 nM.
Regarding `CN(C)CC(C)(C)CNC(=O)c1cn2c3c(c(N4CCC(N)C4)c(F)cc3c1=O)Oc1cc3ccccc3cc1-2` (centres unmarked) [compound 531], the values for the IC50 (in test [1] (setting [2]); in the test on HeLa cells (setting [3])) were 0.375 µM and 480 nM, respectively.
The like results for `CN(C)CCCCNC(=O)c1cn2c3c(c(N4CC[C@@H](NC(=O)CCNCCCn5ccnc5)C4)c(F)cc3c1=O)Oc1cc3c(cc1-2)oc1ccccc13` [compound 500] were, in that order, 0.375 µM and 5600 nM.
As for `CN1CCCC1CCNC(=O)c1cn2c3c(c(NCC(O)c4ccccc4)c(F)cc3c1=O)Oc1cc3ccccc3cc1-2` (centres unmarked) [compound 1676], the results for the IC50 (in test [1] (setting [4]); in the test with HeLa cells (setting [5])) were 0.75 µM and 190 nM, respectively.
Take `CN(C)CCCCNc1c(F)cc2c(=O)c(C(=O)NCCN3CCCC3)cn3c2c1Oc1cc2c(cc1-3)oc1ccccc12` [compound 369]: the IC50 in test [1] (setting [2]) stood at 0.75 µM; in the test on HeLa cells (setting [3]) it was 3500 nM.
On to `CN1CCCC1CCNc1c(F)cc2c(=O)c(C(=O)NCCN3CCCC3)cn3c4cc5c(cc4oc1c23)c(=O)c1ccccc15` (centres unmarked) [compound 527], for which the results for the IC50 (in test [1] (setting [2]); in the test with HeLa cells (setting [3])) were 0.375 µM and 790 nM, respectively.
In the case of `CCN(CC)CCCC(C)NC(=O)c1cn2c3c(c(N4CCC(c5cnccn5)C4)c(F)cc3c1=O)Oc1ccccc1-2` (centres unmarked) [compound 28], the values for the IC50 (in test [1] (setting [2]); with HeLa cells (setting [3])) were 3 µM and 2500 nM, respectively.
Taken in the same sequence, the figures for `N[C@H]1CCN(c2c(F)cc3c(=O)c(C(=O)NCCN4CCOCC4)cn4c5cc6c(cc5oc2c34)c(=O)c2ccccc26)C1` [compound 579] were 0.18 µM and 490 nM.
The like results for `CN1CCCC1CCNc1c(F)cc2c(=O)c(C(=O)NCCN3CCOCC3)cn3c4cc5c(cc4oc1c23)c(=O)c1ccccc15` (centres unmarked) [compound 517] were, in that order, 0.375 µM and 2200 nM.
`CN1CCCC1CCNC(=O)c1cn2c3c(c(NCC(O)c4ccccc4)c(F)cc3c1=O)Oc1cc3ccccc3cc1-2` (centres unmarked) [compound 392]: the IC50 in test [1] (setting [2]) turned out to be 0.75 µM; in the test on HeLa cells (setting [3]), 190 nM.
The like results for `O=C(CCN1CCCC1)N[C@@H]1CCN(c2c(F)cc3c(=O)c(C(=O)NCCN4CCCC4)cn4c3c2Oc2cc3c(cc2-4)oc2ccccc23)C1` [compound 376] were, in that order, 0.75 µM and 2400 nM.
Consider `CN1CCCC1CCNC(=O)c1cn2c3cc4c(cc3oc3c(NCCN5CCCC5)c(F)cc(c1=O)c32)c(=O)c1ccccc14` (centres unmarked) [compound 575], for which the IC50 stood at 0.18 µM in test [1] (setting [2]) and 2100 nM with HeLa cells (setting [3]).
Taken in the same sequence, the figures for `N[C@@H]1CCN(c2c(F)cc3c(=O)c(C(=O)NCCCN4CCOCC4)cn4c3c2Oc2cc3c(cc2-4)oc2ccccc23)C1` [compound 375] were 0.75 µM and 2700 nM.
`N[C@@H]1CCN(c2c(F)cc3c(=O)c(C(=O)NCCC4CCCN4)cn4c3c2Oc2cc3c(cc2-4)oc2ccccc23)C1` (some centres unmarked) [compound 563]: the IC50 came out at 0.25 µM in test [1] (setting [2]) and 310 nM in the test with HeLa cells (setting [3]).
The like results for `CN1CCCC1CCNC(=O)c1cn2c3c(c(NCC4CC(C)(C)N(O)C4(C)C)c(F)cc3c1=O)Oc1cc3ccccc3cc1-2` (centres unmarked) [compound 513] were, in that order, 0.375 µM and 3100 nM.
